Experimental data taken from patent US11117901B2, “Substituted pyrazolo[4,3-h]quinazolines as choline kinase inhibitors” (NERVIANO MEDICAL SCIENCES S.R.L., priority 2017, dated 2021).

How the values were obtained:
hChoKβ FL = molecular target: T1, hChoKβ FL (Homo sapiens, UniProt Q9Y259); assay: Biochemical kinase inhibition assay (Kinase-Glo luminescent) on hChoKβ FL; conditions: recombinant hChoKβ FL 30 nM, ATP 5 μM, choline 20 μM, 60 min rt; read-out: ChoKβ IC50
T1 construct: hChoKβ full length (FL), corresponding to aminoacids 2-395; GST (N, cleaved yes); PreScission Protease recognition site (N); made in house; host or cells: Escherichia coli BL21pLysS (DE3)
In short: (§1)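 Kinase-Glo residual-ATP luminescence with in-house E. coli-expressed, tag-cleaved enzymes: Δ49N-hChoKα 2.2 nM with 5 μM choline; hChoKβ FL 30 nM with 20 μM choline. Both used 5 μM ATP, 60 min at room temperature, 1% DMSO, pH 7.5 Hepes buffer. IC50 from 4-parameter fits of ten 3-fold dilutions from 10 μM.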

Δ49N-hChoKα = molecular target: T2, Δ49N-hChoKα (Homo sapiens, UniProt P35790); assay: Biochemical kinase inhibition assay (Kinase-Glo luminescent) on Δ49N-hChoKα; conditions: recombinant Δ49N-hChoKα 2.2 nM, ATP 5 μM, choline 5 μM, 60 min rt; read-out: ChoKα IC50
T2 construct: cDNA fragment 362-1534, corresponding to aminoacids 50 457; GST (N, cleaved yes); PreScission Protease recognition site (N); made in house; host or cells: Escherichia coli BL21pLysS (DE3)
In short: as §1

[1] = tested on: [Phosphocholine] in MDA-MB-468 cell supernatants; assay: Phosphocholine determination in cell culture medium (supernatants); format: cell-based; conditions: Homo sapiens, 24 h treatment, vs untreated control
Method: (§2) For the determination of phosphocholine in cells, extracts were prepared according to ref. Cancer Res., 2005, 65, 9369-9376 with some modifications. MDA-MB-468 breast cancer cell line was plated at 1×10^6 cells in 10 cm petri dish culture in RPMI, 10% FCS culture medium. After 24 h, fresh medium and a compound of general formula (I) were added for further 24 h. At the end of the treatment, the cells were trypsinised, counted and the diameter was determined using a Coulter Counter (Multisizer 3, Beckman). Cells were washed twice with ice-cold physiologic saline solution and 2×10^6 cells resuspended in 0.3 mL ice-cold twice-distilled water. Then, 0.7 mL ice-cold absolut EtOH were added (final ratio EtOH/H2O 70:30, v/v). After 24 h at −20° C. the samples were sonicated and centrifuged at 14,000×g for 30 minutes.
Phosphocholine concentration levels were assessed in the supernatants using an Ultra High Pressure Liquid Chromatography system (UPLC®, Waters) coupled with a triple quadrupoles mass spectrometer (TQD, Waters) operating in single reaction monitoring mode (SRM). Analyses were performed using Acquity HSS T3 column 2.1×50 mm column, 1.8 μm particle size. Mobile phase A was H2O, modified with 0.15% formic acid, and mobile phase B was MeOH (100% A→97% A over 1 min, flow rate 0.5 mL/min). Waters TQD triple quad mass spectrometer was equipped with an electrospray ion source operating in the positive mode. Source parameters were set as follows: desolvation gas flow 1000 L/h, cone gas flow 50 L/h; collision gas flow 0.2 mL/min; source temperature 130° C.; desolvation temperature 450° C. […] The monitored transitions were m/z 184.00 to 85.7 (collision energy 24 eV) for phosphocholine and m/z 103.0 to 57.5 (collision energy 13 eV) for DMG. […]
For the determination of phosphocholine in cell culture medium, cell culture supernatants (500 μL) were denatured by adding 100 μL of trichloroacetic acid (TCA) 1M containing dimethyl glicine (DMG) (100 μM), used as internal standard. […] The supernatants were subsequently analyzed for phosphocholine determination. […]

[2] = tested on: [Phosphocholine] in MDA-MB-468 cell extracts; assay: Phosphocholine determination assay in cell extracts (target inhibition in cells); format: cell-based; conditions: Homo sapiens, 24 h treatment, vs untreated control
Method: as §2
Phosphocholine concentration levels were assessed in the supernatants using an Ultra High Pressure Liquid Chromatography system (UPLC®, Waters) coupled with a triple quadrupoles mass spectrometer (TQD, Waters) operating in single reaction monitoring mode (SRM). Analyses were performed using Acquity HSS T3 column 2.1×50 mm column, 1.8 μm particle size. Mobile phase A was H2O, modified with 0.15% formic acid, and mobile phase B was MeOH (100% A→97% A over 1 min, flow rate 0.5 mL/min). Waters TQD triple quad mass spectrometer was equipped with an electrospray ion source operating in the positive mode. Source parameters were set as follows: desolvation gas flow 1000 L/h, cone gas flow 50 L/h; collision gas flow 0.2 mL/min; source temperature 130° C.; desolvation temperature 450° C. Dimethyl glicine (DMG) was added to samples as internal standard at 100 μM final concentration. The monitored transitions were m/z 184.00 to 85.7 (collision energy 24 eV) for phosphocholine and m/z 103.0 to 57.5 (collision energy 13 eV) for DMG. The concentration of PCho in the sample was normalized to the total volume of cells (number cells×volume of single cell considered like a sphere).
As an example, the mechanism of action of cpd 39 is reported in Table 2 (Control refers to untreated cells).

T1 sequence (Q9Y259 2-395): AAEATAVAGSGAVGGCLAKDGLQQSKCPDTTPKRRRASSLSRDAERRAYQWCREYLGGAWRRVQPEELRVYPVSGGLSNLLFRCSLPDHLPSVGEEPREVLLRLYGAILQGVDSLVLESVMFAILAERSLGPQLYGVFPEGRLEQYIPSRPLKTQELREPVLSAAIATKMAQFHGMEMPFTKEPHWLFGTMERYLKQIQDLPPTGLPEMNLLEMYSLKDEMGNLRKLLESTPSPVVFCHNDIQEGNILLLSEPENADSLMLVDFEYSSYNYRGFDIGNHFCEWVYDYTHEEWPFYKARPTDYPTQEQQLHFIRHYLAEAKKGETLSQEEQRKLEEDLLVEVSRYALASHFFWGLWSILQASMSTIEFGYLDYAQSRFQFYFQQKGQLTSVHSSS
T2 sequence (P35790 50-439 isoform P35790-2): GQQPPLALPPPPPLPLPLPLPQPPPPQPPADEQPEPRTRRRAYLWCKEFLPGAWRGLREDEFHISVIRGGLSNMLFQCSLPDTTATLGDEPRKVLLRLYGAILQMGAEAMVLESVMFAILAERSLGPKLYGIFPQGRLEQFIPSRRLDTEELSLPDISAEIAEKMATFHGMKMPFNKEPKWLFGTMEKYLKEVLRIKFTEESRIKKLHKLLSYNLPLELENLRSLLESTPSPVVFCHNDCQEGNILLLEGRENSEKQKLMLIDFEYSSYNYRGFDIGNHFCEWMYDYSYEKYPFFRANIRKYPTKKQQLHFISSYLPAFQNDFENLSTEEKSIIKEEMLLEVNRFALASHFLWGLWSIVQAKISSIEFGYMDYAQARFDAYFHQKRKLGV

IC50 (hChoKβ FL): 0.084 µM
IC50 (Δ49N-hChoKα): 0.002 µM
SMILES: CC1(C)Cc2cnc(N)nc2-c2[nH]nc(C(=O)Nc3nc(CC(=O)N4CCC(N5CCCCC5)CC4)cs3)c21 [compound 39]
inhibition at 0.08 µM ([1]; 0.08 μM compound): 42%
inhibition at 0.4 µM ([1]; 0.4 μM compound): 85%
inhibition at 2 µM ([1]; 2 μM compound): 88%
inhibition at 0.08 µM ([2]; 0.08 μM compound): 35%
inhibition at 0.4 µM ([2]; 0.4 μM compound): 87%
inhibition at 2 µM ([2]; 2 μM compound): 98%
